Measurements reported in the supplement of paper PMC11451515.

How the values were obtained:
Assay in all cases: AUC of viability dose-response curve (% viability x log10 dose units); higher = less sensitive
Details in all cases: 48 h
[1] = test system: SEM cells
Outline: (§1)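 Leukemia cells adapted to each medium were seeded in 1536-well plates (500 or 1000 cells/well). They were dosed with library compounds in DMSO at 11 threefold doses, 47 μM to 0.79 nM, for 48 h at 37°C. CellTiter-Glo One luminescence was normalised per plate to DMSO and cell-free wells. Area under the curve was integrated by trapezoidal rule over log10 doses on a four-parameter log-logistic fit; curves exceeding full viability were scaled and curves failing quality control removed.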

[2] = test system: P12-Ichikawa
Outline: as §1

[3] = test system: NOMO1
Outline: as §1

[4] = RPMI 5 mM glucose + 10% dialyzed FBS

| Compound | AUC of viability dose-response curve ([1]; HPLM + 10% dialyzed FBS) | AUC of viability dose-response curve ([1]; RPMI 5 mM glucose + 10% FBS) | AUC of viability dose-response curve [1, 4] | AUC of viability dose-response curve ([2]; HPLM + 10% dialyzed FBS) | AUC of viability dose-response curve ([2]; RPMI 5 mM glucose + 10% FBS) | AUC of viability dose-response curve [2, 4] | AUC of viability dose-response curve ([3]; HPLM + 10% dialyzed FBS) | AUC of viability dose-response curve ([3]; RPMI 5 mM glucose + 10% FBS) | AUC of viability dose-response curve [3, 4] |
| --- | --- | --- | --- | --- | --- | --- | --- | --- | --- |
| COc1cc(NC(=O)c2ccc(-c3ccc(Cl)cc3)o2)cc(OC)c1 | 457 | 465 | 463 | 471 | 472 | 472 | 412 | 432 | 418 |
| N#CC1(c2ccc(NC(=O)c3cccnc3NCc3ccncc3)cc2)CCCC1 | 442 | 431 | 412 | 437 | 461 | 435 | 442 | 475 | 463 |
| COc1nccc(-c2c(-c3ccc(F)cc3)ncn2C2CCC(O)CC2)n1 (configuration not stated) | 459 | 320 | 438 | 443 | 465 | 462 | 463 | 458 | 465 |
| CCOc1cc(/C=C2/C(=O)N(c3ccccc3)N=C2C)cc(Cl)c1OCC(=O)OC | 386 | 422 | 383 | 424 | 408 | 418 | 432 | 413 | 425 |
| NC/1=N/C(=O)N(C[C@@H](CO)OC[P](O)(O)=O)/C=C1 | 455 | 466 | 439 | 458 | 443 | 460 | 421 | 460 | 475 |
| CC(C)C(=O)Nc1ncc(-c2cc(C(F)F)nn2-c2c(Cl)cccc2Cl)s1 | 458 | 465 | 463 | 465 | 460 | 463 | 468 | 472 | 460 |
| CC(C[N+](C)(C)C)OC(N)=O (configuration not stated) | 462 | 456 | 477 | 469 | 456 | 468 | 462 | 456 | 465 |
| O=C(C1CC1)N1CC[C@@H](Cn2c(-c3ccc(-c4ccc5occc5c4)cc3)nc3cnccc32)C1 | 457 | 465 | 462 | 461 | 470 | 469 | 469 | 456 | 468 |
